From publication PMC11830721 (Frontiers in Pharmacology, 2025)

Legend:
Assay in all cases: SelectScreen kinase selectivity assay
Assay type in all cases: biochemical
Conditions in all cases: ten-dose 0.25–128 μM
EPHA1 = EPHA1 (Homo sapiens, UniProt P21709)
Procedure: (§1) Following the standardized kinase activity assay protocol as previously reported, we utilized the SelectScreen Kinase Profiling Service (Thermo Fisher Scientific) to determine the kinase selectivity profile of FLIN-4 ([van der Wel et al., 2020]). Through a ten-dose dilution series ranging from 0.25 μM to 128 μM in dose-response experiments, we precisely measured the inhibitory effect of FLIN-4 on the substrate phosphorylation reactions catalyzed by a panel of kinases, and thus ascertained the half-maximal inhibitory concentrations (IC50) for each kinase.

JAK2 = JAK2 (Homo sapiens, UniProt O60674)
Procedure: as §1

FRK = FRK (Homo sapiens, UniProt P42685)
FRK, sequence (P42685 whole entry): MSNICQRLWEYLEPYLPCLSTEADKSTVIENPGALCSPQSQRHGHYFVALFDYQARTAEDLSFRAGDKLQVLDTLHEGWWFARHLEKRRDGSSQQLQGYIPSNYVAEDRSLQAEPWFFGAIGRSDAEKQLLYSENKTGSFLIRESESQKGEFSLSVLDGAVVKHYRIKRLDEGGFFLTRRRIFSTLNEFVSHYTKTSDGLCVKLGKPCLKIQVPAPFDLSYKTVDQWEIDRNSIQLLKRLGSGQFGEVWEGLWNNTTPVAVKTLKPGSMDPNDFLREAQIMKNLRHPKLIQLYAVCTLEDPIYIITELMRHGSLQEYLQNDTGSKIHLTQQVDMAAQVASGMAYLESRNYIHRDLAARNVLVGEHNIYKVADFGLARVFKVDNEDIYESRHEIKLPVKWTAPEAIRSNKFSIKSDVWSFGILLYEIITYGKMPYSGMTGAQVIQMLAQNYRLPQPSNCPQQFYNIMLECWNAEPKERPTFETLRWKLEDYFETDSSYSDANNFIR
Procedure: as §1

DDR2 = DDR2 (Homo sapiens, UniProt Q16832)
Procedure: as §1

TYRO3 = TYRO3 (Homo sapiens, UniProt Q06418)
Procedure: as §1

BLK = BLK (Homo sapiens, UniProt P51451)
BLK, sequence (P51451 whole entry): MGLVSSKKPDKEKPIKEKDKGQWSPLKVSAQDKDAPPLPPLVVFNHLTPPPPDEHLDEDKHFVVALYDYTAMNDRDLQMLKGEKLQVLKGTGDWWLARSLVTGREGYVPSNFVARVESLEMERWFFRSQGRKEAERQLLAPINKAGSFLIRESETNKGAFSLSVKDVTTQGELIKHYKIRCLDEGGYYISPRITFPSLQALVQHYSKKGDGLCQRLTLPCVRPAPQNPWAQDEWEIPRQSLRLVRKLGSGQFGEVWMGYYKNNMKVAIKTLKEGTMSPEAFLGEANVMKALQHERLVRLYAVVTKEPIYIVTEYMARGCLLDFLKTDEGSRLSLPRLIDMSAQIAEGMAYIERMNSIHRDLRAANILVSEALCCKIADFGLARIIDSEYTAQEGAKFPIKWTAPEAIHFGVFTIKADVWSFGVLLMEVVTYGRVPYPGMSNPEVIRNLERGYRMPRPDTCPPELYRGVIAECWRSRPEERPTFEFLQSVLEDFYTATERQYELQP
Procedure: as §1

YES1 = YES1 (Homo sapiens, UniProt P07947)
Procedure: as §1

CSF1R = CSF1R (Homo sapiens, UniProt P07333)
Procedure: as §1

KIT = KIT (Homo sapiens, UniProt P10721)
Procedure: as §1

FGFR4 = FGFR4 (Homo sapiens, UniProt P22455)
FGFR4, sequence (P22455 22-802): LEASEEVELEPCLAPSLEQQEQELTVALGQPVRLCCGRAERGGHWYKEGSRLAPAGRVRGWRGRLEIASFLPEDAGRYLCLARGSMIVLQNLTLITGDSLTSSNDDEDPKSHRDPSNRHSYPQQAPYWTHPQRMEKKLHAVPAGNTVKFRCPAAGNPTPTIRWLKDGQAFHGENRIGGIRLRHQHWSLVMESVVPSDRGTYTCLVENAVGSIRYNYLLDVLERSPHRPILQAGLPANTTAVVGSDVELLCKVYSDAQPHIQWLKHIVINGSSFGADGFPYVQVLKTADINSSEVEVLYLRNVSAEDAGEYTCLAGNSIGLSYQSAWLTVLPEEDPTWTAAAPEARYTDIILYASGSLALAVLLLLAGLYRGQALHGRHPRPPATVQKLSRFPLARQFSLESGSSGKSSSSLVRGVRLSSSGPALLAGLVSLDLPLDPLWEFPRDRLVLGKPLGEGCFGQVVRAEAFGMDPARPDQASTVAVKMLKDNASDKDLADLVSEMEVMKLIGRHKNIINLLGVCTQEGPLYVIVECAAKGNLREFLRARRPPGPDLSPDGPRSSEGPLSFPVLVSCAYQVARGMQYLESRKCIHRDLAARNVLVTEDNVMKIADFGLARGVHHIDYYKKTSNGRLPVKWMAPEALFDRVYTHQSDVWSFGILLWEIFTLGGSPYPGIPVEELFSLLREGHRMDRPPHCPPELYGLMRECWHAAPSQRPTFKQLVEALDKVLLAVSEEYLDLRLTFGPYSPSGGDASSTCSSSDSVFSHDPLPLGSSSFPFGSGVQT
Procedure: as §1

PLK1 = PLK1 (Homo sapiens, UniProt P53350)
Procedure: as §1

BTK = BTK (Homo sapiens, UniProt Q06187)
BTK, sequence (Q06187 whole entry): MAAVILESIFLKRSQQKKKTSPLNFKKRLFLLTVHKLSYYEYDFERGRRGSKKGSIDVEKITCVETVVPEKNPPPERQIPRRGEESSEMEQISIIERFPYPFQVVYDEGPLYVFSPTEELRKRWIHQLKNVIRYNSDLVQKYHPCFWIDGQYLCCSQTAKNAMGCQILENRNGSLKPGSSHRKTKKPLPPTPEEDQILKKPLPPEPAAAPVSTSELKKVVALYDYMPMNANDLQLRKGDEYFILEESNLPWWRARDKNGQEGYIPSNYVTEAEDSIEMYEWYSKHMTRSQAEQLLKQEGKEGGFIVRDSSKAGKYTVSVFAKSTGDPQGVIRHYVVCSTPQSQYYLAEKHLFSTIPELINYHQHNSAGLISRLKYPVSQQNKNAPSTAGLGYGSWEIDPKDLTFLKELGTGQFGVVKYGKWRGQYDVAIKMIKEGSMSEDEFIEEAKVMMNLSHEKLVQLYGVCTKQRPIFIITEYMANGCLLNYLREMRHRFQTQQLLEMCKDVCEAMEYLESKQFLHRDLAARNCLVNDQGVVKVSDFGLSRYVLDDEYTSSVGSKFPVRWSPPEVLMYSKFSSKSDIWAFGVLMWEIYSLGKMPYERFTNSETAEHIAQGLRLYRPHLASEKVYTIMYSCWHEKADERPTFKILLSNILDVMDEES
Procedure: as §1

MST1R = MST1R (Homo sapiens, UniProt Q04912)
Procedure: as §1

IGF1R = IGF1R (Homo sapiens, UniProt P08069)
Procedure: as §1

ITK = ITK (Homo sapiens, UniProt Q08881)
Procedure: as §1

FYN = FYN (Homo sapiens, UniProt P06241)
Procedure: as §1

ABL2 = ABL2 (Homo sapiens, UniProt P42684)
Procedure: as §1

FGFR2 = FGFR2 (Homo sapiens, UniProt P21802)
FGFR2, sequence (P21802 22-821): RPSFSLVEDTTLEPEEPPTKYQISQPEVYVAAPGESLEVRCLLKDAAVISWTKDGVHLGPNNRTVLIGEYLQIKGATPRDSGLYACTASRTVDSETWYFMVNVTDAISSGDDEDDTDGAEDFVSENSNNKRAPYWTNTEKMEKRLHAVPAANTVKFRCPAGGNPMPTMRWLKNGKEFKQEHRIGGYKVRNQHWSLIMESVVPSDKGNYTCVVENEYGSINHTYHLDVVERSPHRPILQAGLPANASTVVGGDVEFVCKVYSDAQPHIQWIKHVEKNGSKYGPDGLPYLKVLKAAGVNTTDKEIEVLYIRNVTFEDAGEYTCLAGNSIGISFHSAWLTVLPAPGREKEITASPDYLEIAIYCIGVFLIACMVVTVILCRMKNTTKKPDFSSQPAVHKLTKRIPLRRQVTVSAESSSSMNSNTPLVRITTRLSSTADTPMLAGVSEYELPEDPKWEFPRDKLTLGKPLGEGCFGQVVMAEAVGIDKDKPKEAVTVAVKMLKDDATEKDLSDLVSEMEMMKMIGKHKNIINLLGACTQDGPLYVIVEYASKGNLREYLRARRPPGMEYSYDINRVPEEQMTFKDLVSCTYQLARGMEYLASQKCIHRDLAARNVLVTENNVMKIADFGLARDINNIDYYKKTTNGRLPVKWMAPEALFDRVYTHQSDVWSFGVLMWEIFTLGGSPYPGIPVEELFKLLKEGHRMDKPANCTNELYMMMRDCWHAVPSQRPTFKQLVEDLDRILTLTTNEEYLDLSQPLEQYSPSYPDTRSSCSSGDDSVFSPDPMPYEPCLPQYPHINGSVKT
Procedure: as §1

JAK3 = JAK3 (Homo sapiens, UniProt P52333)
Procedure: as §1

ERBB2 = ERBB2 (Homo sapiens, UniProt P04626)
Procedure: as §1

PDGFRA = PDGFRA (Homo sapiens, UniProt P16234)
Procedure: as §1

MUSK = MUSK (Homo sapiens, UniProt O15146)
Procedure: as §1

ZAP70 = ZAP70 (Homo sapiens, UniProt P43403)
ZAP70, sequence (P43403 whole entry): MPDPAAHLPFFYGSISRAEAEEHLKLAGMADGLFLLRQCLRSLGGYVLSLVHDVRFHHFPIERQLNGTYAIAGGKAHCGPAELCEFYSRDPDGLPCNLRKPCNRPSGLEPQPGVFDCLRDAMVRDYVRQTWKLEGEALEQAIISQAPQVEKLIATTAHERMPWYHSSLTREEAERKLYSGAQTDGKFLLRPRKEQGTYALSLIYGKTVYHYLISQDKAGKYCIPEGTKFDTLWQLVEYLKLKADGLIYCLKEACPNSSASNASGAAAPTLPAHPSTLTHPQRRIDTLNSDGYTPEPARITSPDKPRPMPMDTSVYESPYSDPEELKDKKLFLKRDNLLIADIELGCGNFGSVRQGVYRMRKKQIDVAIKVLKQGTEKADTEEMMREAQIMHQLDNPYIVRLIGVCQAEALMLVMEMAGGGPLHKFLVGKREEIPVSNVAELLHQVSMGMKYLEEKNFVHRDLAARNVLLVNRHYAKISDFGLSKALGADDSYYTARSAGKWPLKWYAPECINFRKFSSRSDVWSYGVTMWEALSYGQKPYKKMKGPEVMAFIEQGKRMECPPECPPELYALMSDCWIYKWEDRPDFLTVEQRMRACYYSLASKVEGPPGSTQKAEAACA
Procedure: as §1

CDK2 = CDK2 (Homo sapiens, UniProt P24941)
Procedure: as §1

EPHB1 = EPHB1 (Homo sapiens, UniProt P54762)
Procedure: as §1

EPHB3 = EPHB3 (Homo sapiens, UniProt P54753)
Procedure: as §1

AXL = AXL (Homo sapiens, UniProt P30530)
Procedure: as §1

PIM1 = PIM1 (Homo sapiens, UniProt P11309)
Procedure: as §1

ABL1 = ABL1 (Homo sapiens, UniProt P00519)
Procedure: as §1

FGFR1 = FGFR1 (Homo sapiens, UniProt P11362)
Procedure: as §1

EPHA8 = EPHA8 (Homo sapiens, UniProt P29322)
Procedure: as §1

PDGFRB = PDGFRB (Homo sapiens, UniProt P09619)
Procedure: as §1

FES = FES (Homo sapiens, UniProt P07332)
Procedure: as §1

EPHB2 = EPHB2 (Homo sapiens, UniProt P29323)
Procedure: as §1

JAK1 = JAK1 (Homo sapiens, UniProt P23458)
Procedure: as §1

EPHA2 = EPHA2 (Homo sapiens, UniProt P29317)
EPHA2, sequence (P29317 24-976): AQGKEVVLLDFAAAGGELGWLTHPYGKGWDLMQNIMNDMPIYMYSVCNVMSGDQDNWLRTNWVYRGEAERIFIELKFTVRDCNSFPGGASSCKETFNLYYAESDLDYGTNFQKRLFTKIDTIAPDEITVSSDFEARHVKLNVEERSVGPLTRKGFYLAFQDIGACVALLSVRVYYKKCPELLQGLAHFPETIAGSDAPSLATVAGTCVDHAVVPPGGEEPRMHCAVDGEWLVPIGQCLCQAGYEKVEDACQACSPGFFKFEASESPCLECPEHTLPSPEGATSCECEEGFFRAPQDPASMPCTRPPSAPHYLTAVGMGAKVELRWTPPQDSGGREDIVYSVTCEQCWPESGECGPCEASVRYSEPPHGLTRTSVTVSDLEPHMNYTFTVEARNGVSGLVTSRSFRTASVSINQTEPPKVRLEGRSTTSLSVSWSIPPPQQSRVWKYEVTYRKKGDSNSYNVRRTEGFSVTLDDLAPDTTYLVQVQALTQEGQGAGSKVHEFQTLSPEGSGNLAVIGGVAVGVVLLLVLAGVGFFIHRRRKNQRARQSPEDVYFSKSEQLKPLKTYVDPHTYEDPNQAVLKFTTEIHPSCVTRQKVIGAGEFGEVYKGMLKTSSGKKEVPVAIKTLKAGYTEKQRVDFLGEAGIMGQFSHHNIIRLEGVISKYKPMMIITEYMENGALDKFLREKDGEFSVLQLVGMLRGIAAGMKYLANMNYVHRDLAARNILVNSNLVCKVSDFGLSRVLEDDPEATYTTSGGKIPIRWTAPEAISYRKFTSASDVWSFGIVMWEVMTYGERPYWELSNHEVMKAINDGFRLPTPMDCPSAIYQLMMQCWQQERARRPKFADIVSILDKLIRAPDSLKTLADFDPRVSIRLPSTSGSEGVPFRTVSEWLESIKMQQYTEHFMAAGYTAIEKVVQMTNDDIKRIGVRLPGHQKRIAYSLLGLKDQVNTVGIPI
Procedure: as §1

MERTK = MERTK (Homo sapiens, UniProt Q12866)
Procedure: as §1

DDR1 = DDR1 (Homo sapiens, UniProt Q08345)
Procedure: as §1

CDK1 = CDK1 (Homo sapiens, UniProt P06493)
Procedure: as §1

ZAK = ZAK (Homo sapiens, UniProt Q9NYL2)
Procedure: as §1

ROS1 = ROS1 (Homo sapiens, UniProt P08922)
Procedure: as §1

PTK2 = PTK2 (Homo sapiens, UniProt Q05397)
Procedure: as §1

Measured: IC50

CCc1nc(C(N)=O)c(Nc2ccc(N3CCC(Nc4ccccc4)CC3)c(OC)c2)nc1NC1CCOC(C(O)CO)C1 (stereo not drawn) [FLIN-4]
> 10 µM: all assays above
